# Assays:
# [1] = test system: Glomerella lagenarium (Colletotrichum lagenarium); assay: Fungicidal activity against Glomerella lagenarium (Colletotrichum lagenarium) liquid culture / cucumber / preventative (anthracnose); type: cell-based; conditions: Colletotrichum orbiculare; 20 ppm in the applied formulation; liquid culture in PDB, 24° C.; inhibition of growth measured photometrically 3 to 4 days after application; compared to untreated; read-out: disease control
# Experimental: Mycelia fragments or conidia suspensions of a fungus prepared either freshly from liquid cultures of the fungus or from cryogenic storage, are directly mixed into nutrient broth. DMSO solutions of the test compound (max. 10 mg/ml) are diluted with 0.025% Tween20 by a factor of 50 and 10 μl of this solution is pipetted into a microtiter plate (96-well format). The nutrient broth containing the fungal spores/mycelia fragments is then added to give an end concentration of the tested compound. The test plates are incubated in the dark at 24° C. and 96% relative humidity. The inhibition of fungal growth is determined photometrically after 2 to 7 days, depending on the pathosystem, and percent antifungal activity relative to the untreated check is calculated. Example 4: Fungicidal Activity Against Glomerella lagenarium (Colletotrichum lagenarium) Liquid Culture/Cucumber/Preventative (Anthracnose) Conidia of the fungus from cryogenic storage are directly mixed into nutrient broth (PDB—potato dextrose broth). After placing a (DMSO) solution of test compound into a microtiter plate (96-well format), the nutrient broth containing the fungal spores is added. The test plates are incubated at 24° C. and the inhibition of growth is measured photometrically 3 to 4 days after application. The following compounds at 20 ppm in the applied formulation give at least 80% disease control in this test when compared to untreated control under the same conditions, which show extensive disease development.
# [2] = test system: Puccinia recondita f. Sp. Tritici; assay: Fungicidal activity against Puccinia recondita f. sp. tritici / wheat / leaf disc preventative (brown rust); type: in vivo; conditions: foliar, 200 ppm in the applied formulation, wheat leaf segments cv. Kanzler, preventative (inoculated 1 day after application), assessed 7 to 9 days after application, compared to untreated, read-out: disease control
# Experimental: Leaf disks or leaf segments of various plant species are cut from plants grown in a greenhouse. The cut leaf disks or segments are placed in multiwell plates (24-well format) onto water agar. The leaf disks are sprayed with a test solution before (preventative) or after (curative) inoculation. Compounds to be tested are prepared as DMSO solutions (max. 10 mg/ml) which are diluted to the appropriate concentration with 0.025% Tween20 just before spraying. The inoculated leaf disks or segments are incubated under defined conditions (temperature, relative humidity, light, etc.) according to the respective test system. A single evaluation of disease level is carried out 3 to 14 days after inoculation, depending on the pathosystem. Percent disease control relative to the untreated check leaf disks or segments is then calculated. Example 1: Fungicidal Activity Against Puccinia recondita f. Sp. Tritici/Wheat/Leaf Disc Preventative (Brown Rust) Wheat leaf segments cv. Kanzler were placed on agar in multiwell plates (24-well format) and sprayed with the formulated test compound diluted in water. The leaf disks were inoculated with a spore suspension of the fungus 1 day after application. The inoculated leaf segments were incubated at 19° C. and 75% relative humidity (rh) under a light regime of 12 hours light/12 hours darkness in a climate cabinet and the activity of a compound was assessed as percent disease control compared to untreated when an appropriate level of disease damage appears in untreated check leaf segments (7 to 9 days after application). The following compounds at 200 ppm in the applied formulation give at least 80% disease control in this test when compared to untreated control leaf disks under the same conditions, which show extensive disease development.
# Uromyces viciae-fabael = assay: Fungicidal activity against Uromyces viciae-fabae / field bean / leaf disc preventative (faba-bean rust); type: in vivo; conditions: foliar, 288 h, 100 ppm in the applied formulation, field bean leaf discs, preventative (inoculated two hours after application), assessed 12 days after application, compared to untreated, read-out: disease control
# Experimental: Leaf disks or leaf segments of various plant species are cut from plants grown in a greenhouse. The cut leaf disks or segments are placed in multiwell plates (24-well format) onto water agar. The leaf disks are sprayed with a test solution before (preventative) or after (curative) inoculation. Compounds to be tested are prepared as DMSO solutions (max. 10 mg/ml) which are diluted to the appropriate concentration with 0.025% Tween20 just before spraying. The inoculated leaf disks or segments are incubated under defined conditions (temperature, relative humidity, light, etc.) according to the respective test system. A single evaluation of disease level is carried out 3 to 14 days after inoculation, depending on the pathosystem. Percent disease control relative to the untreated check leaf disks or segments is then calculated. Example 5: Fungicidal Activity Against Uromyces viciae-fabael Field Bean/Leaf Disc Preventative (Faba-Bean Rust) Field bean leaf discs are placed on water agar in multiwell plates (96-well format) and 10 μl of the formulated test compound diluted in acetone and a spreader pipetted onto the leaf disc. Two hours after application leaf discs are inoculated by spraying a spore suspension on the lower leaf surface. The leaf discs are incubated in a climate cabinet at 22° C. with 18 hour day and 70% relative humidity. The activity of a compound is assessed as percent disease control compared to untreated when an appropriate level of disease damage appears in untreated check leaf disks (12 days after application). The following compounds at 100 ppm in the applied formulation give at least 80% disease control in this test when compared to untreated control leaf discs under the same conditions, which show extensive disease development.
# Phakopsora pachyrhizi = assay: Fungicidal activity against Phakopsora pachyrhizi / soybean / leaf disc preventative (Asian soybean rust); type: in vivo; conditions: foliar, 200 ppm in the applied formulation, soybean leaf disks, preventative (inoculated one day after application), assessed 12 to 14 days after application, compared to untreated, read-out: disease control
# Experimental: Leaf disks or leaf segments of various plant species are cut from plants grown in a greenhouse. The cut leaf disks or segments are placed in multiwell plates (24-well format) onto water agar. The leaf disks are sprayed with a test solution before (preventative) or after (curative) inoculation. Compounds to be tested are prepared as DMSO solutions (max. 10 mg/ml) which are diluted to the appropriate concentration with 0.025% Tween20 just before spraying. The inoculated leaf disks or segments are incubated under defined conditions (temperature, relative humidity, light, etc.) according to the respective test system. A single evaluation of disease level is carried out 3 to 14 days after inoculation, depending on the pathosystem. Percent disease control relative to the untreated check leaf disks or segments is then calculated. Example 3: Fungicidal Activity Against Phakopsora pachyrhizi/Soybean/Leaf Disc Preventative (Asian Soybean Rust) Soybean leaf disks are placed on water agar in multiwell plates (24-well format) and sprayed with the formulated test compound diluted in water. One day after application leaf discs are inoculated by spraying a spore suspension on the lower leaf surface. After an incubation period in a climate cabinet of 24-36 hours in darkness at 20° C. and 75% rh leaf disc are kept at 20° C. with 12 h light/day and 75% rh. The activity of a compound is assessed as percent disease control compared to untreated when an appropriate level of disease damage appears in untreated check leaf disks (12 to 14 days after application). The following compounds at 200 ppm in the applied formulation give at least 80% disease control in this test when compared to untreated control leaf disks under the same conditions, which show extensive disease development.
SMILES,inhibition of growth at 20 ppm [1] [%],pest or weed control at 200 ppm [2] [%],pest or weed control at 100 ppm (Uromyces viciae-fabael) [%],pest or weed control at 200 ppm (Phakopsora pachyrhizi) [%]
"O=C(c1ccc(-c2noc(C(F)(F)F)n2)c(F)c1)N(Cc1ccc2c(c1)OCO2)CC1OCCO1 [Compound 1.18, N-(1,3-benzodioxol-5-ylmethyl)-N-(1,3-dioxolan-2-ylmethyl)-3-fluoro-4-[5-(trifluoromethyl)-1,2,4-oxadiazol-3-yl]benzamide]",≥ 80,≥ 80,≥ 80,–
"O=C(NC1CCc2ccccc21)c1ccc(-c2noc(C(F)(F)F)n2)c(F)c1 (centres unmarked) [Compound 1.15, 3-fluoro-N-indan-1-yl-4-[5-(trifluoromethyl)-1,2,4-oxadiazol-3-yl]benzamide]",–,≥ 80,≥ 80,≥ 80
"O=C(NCCCn1ccnc1)c1ccc(-c2noc(C(F)(F)F)n2)c(F)c1 [Compound 1.32, 3-fluoro-N-(3-imidazol-1-ylpropyl)-4-[5-(trifluoromethyl)-1,2,4-oxadiazol-3-yl]benzamide]",–,–,≥ 80,–
"O=C(Nc1ccccc1)c1ccc(-c2noc(C(F)(F)F)n2)c(F)c1 [Compound 1.33, 3-fluoro-N-phenyl-4-[5-(trifluoromethyl)-1,2,4-oxadiazol-3-yl]benzamide]",–,–,≥ 80,–
"CN1CCC2(CC1)CC(NC(=O)c1ccc(-c3noc(C(F)(F)F)n3)c(F)c1)C2 [Compound 1.11, 3-fluoro-N-(7-methyl-7-azaspiro[3.5]nonan-2-yl)-4-[5-(trifluoromethyl)-1,2,4-oxadiazol-3-yl]benzamide]",–,–,≥ 80,≥ 80
"CCOc1ccc(CN(C(=O)c2ccc(-c3noc(C(F)(F)F)n3)c(F)c2)C(C)C)cc1OCC [Compound 1.17, N-[(3,4-diethoxyphenyl)methyl]-3-fluoro-N-isopropyl-4-[5-(trifluoromethyl)-1,2,4-oxadiazol-3-yl]benzamide]",≥ 80,≥ 80,≥ 80,–
"CC1CCCC(C)N1CCNC(=O)c1ccc(-c2noc(C(F)(F)F)n2)c(F)c1 (centres unmarked) [Compound 1.21, N-[2-(2,6-dimethyl-1-piperidyl)ethyl]-3-fluoro-4-[5-(trifluoromethyl)-1,2,4-oxadiazol-3-yl]benzamide]",–,–,≥ 80,–
"CC(C)C(C)(C#N)NC(=O)c1ccc(-c2noc(C(F)(F)F)n2)c(F)c1 (centres unmarked) [Compound 1.30, N-(1-cyano-1,2-dimethyl-propyl)-3-fluoro-4-[5-(trifluoromethyl)-1,2,4-oxadiazol-3-yl]benzamide]",≥ 80,≥ 80,–,–
"N#CCCN(CCC#N)C(=O)c1ccc(-c2noc(C(F)(F)F)n2)c(F)c1 [Compound 1.29, N,N-bis(2-cyanoethyl)-3-fluoro-4-[5-(trifluoromethyl)-1,2,4-oxadiazol-3-yl]benzamide]",–,–,≥ 80,–
"CCOC(=O)C(CC(F)(F)F)NC(=O)c1ccc(-c2noc(C(F)(F)F)n2)c(F)c1 (centres unmarked) [Compound 1.26, ethyl 4,4,4-trifluoro-2-[[3-fluoro-4-[5-(trifluoromethyl)-1,2,4-oxadiazol-3-yl]benzoyl]amino] butanoate]",–,≥ 80,≥ 80,–
"CCOc1ccc(CN(CC2OCCO2)C(=O)c2ccc(-c3noc(C(F)(F)F)n3)c(F)c2)cc1OCC [Compound 1.19, N-[(3,4-diethoxyphenyl)methyl]-N-(1,3-dioxolan-2-ylmethyl)-3-fluoro-4-[5-(trifluoromethyl)-1,2,4-oxadiazol-3-yl]benzamide]",≥ 80,–,≥ 80,–
"O=C(Nc1ccnc2ncnn12)c1ccc(-c2noc(C(F)(F)F)n2)c(F)c1 [Compound 1.9, 3-fluoro-N-([1,2,4]triazolo[1,5-a]pyrimidin-7-yl)-4-[5-(trifluoromethyl)-1,2,4-oxadiazol-3-yl]benzamide]",≥ 80,≥ 80,≥ 80,–
"O=C(NC1CC1c1ccccc1)c1ccc(-c2noc(C(F)(F)F)n2)c(F)c1 (centres unmarked) [Compound 1.34, 3-fluoro-N-(2-phenylcyclopropyl)-4-[5-(trifluoromethyl)-1,2,4-oxadiazol-3-yl]benzamide]",–,–,≥ 80,–
"O=C(NCCCCc1ccccc1)c1ccc(-c2noc(C(F)(F)F)n2)c(F)c1 [Compound 1.1, 3-fluoro-N-(4-phenylbutyl)-4-[5-(trifluoromethyl)-1,2,4-oxadiazol-3-yl]benzamide]",≥ 80,≥ 80,≥ 80,–
"Cc1ccc(C)c(CNC(=O)c2ccc(-c3noc(C(F)(F)F)n3)c(F)c2)c1 [Compound 1.3, N-[(2,5-dimethyl-phenyl)methyl]-3-fluoro-4-[5-(trifluoromethyl)-1,2,4-oxadiazol-3-yl]benzamide]",–,≥ 80,≥ 80,≥ 80
"CC(C)(C)CC(C)(C)NC(=O)c1ccc(-c2noc(C(F)(F)F)n2)c(F)c1 [Compound 1.37, 3-fluoro-N-(1,1,3,3-tetramethylbutyl)-4-[5-(trifluoromethyl)-1,2,4-oxadiazol-3-yl]benzamide]",≥ 80,–,≥ 80,–
"CCC(C#N)(COc1ccc(C#N)cc1)NC(=O)c1ccc(-c2noc(C(F)(F)F)n2)c(F)c1 (centres unmarked) [Compound 1.24, N-[1-cyano-1-[(4-cyanophenoxy)methyl]propyl]-3-fluoro-4-[5-(trifluoromethyl)-1,2,4-oxadiazol-3-yl]benzamide]",–,≥ 80,–,–
"O=C(NC1CCSCC1)c1ccc(-c2noc(C(F)(F)F)n2)c(F)c1 [Compound 1.7, 3-fluoro-N-tetrahydro-thiopyran-4-yl-4-[5-(trifluoromethyl)-1,2,4-oxadiazol-3-yl]benzamide]",–,–,≥ 80,–

# — patent publication US10757941B2, “Microbiocidal oxadiazole derivatives” (SYNGENTA PARTICIPATIONS AG, priority 2016, dated 2020)
